Each structure is given as a SMILES string.

The target in the first assay is T1, HIV-1 reverse transcriptase L100I+K103N mutant (Human immunodeficiency virus type 1 group M subtype B, UniProt P03366, K702N/L699I).
T1 construct: made in house; host or cells: E. coli BL21 (DE3)
In words: HIV-1 reverse transcriptase SPA (scintillation proximity) assay with mutant RT. The assay is classed as biochemical. The following applies: K103N double escape mutant. How it is done:
Convenient reverse transcriptase assays use reverse transcriptase bearing key drug escape mutations prepared broadly as described in Unge et al Eur. J. Biochem. 269, 1670-1677 (2002).
For example a K103N mutant is prepared using this methodology and the primers
The L100I/K103 N mutant is prepared by mutation of L100 in the K103N enzyme:
Mutations are done in the HIVRT DH10 clone cDNA cloned into the pET11d expression vector. The mutations are generated by amplification of the mutated DNA with the help of the enzyme Pfu. Cloning was then performed in E. coli TOP10 cells and expression of mutated enzyme was performed in E. coli BL21 (DE3) cells after induction with IPTG.
The HIV-1 reverse transcriptase assay utilized a SPA (scintillation proximity assay) system relying on fluomicrospheres coated with the receptor molecule streptavidine (Flashplates, PerkinElmer Life Science) which is capable of binding radiolabelled ligands in the reaction solution. In the assay, a biotinylated primer (5′-GTC ATA GCT GTT TCC TG-3′) is pre-annealed with a DNA heterogeneous template (synthesized by GENSE) giving a sequence of 5′-CG UCUGGCAUUGCGAGCGGAUAA CM UUU CAC ACA GGA MC AGC UAU GAC-3′ in an RNase free environment. HIV-1 reverse transcriptase (such as L100I+K103N) catalyzed RNA-dependent DNA activity was measured in the presence of 50 mM Tris-HCl pH=8.0, 80 mM KCl, 10 mM MgCl2, 10 mM Dithiothreitol, 5 mg/ml BSA and 0.05% Nonidet P40 where the incorporation of tritium-labeled dGTP (Amersham, 35 Ci/mmol) and 11 uM of dNTP (dATP, dCTP and dTTP) was monitored at room temperature. The dGTP concentration was used at a Km value of 0.25 uM, 10 nM of RNA template was used and mutant RT (such as L100I+K103N) was used at 180 ng/ml in 100 ul reaction volume for 120 min reaction.
Compounds of the invention were assayed for HIV activity against the problematic L100I, K103N mutant in an invitro assay as outlined below. For reference, the closest prior art compound, cis-1-(4,7-difluoro-1,1a,2,7b-tetrahydro-cyclopropa[c]chromen-1-yl)-3-(5-phenoxy-pyridin-2-yl)-urea, example 20 of WO 02/070516 as depicted above, was assayed in the same system.
For orientation: SPA uses beads or plates that emit light when radiolabelled molecules are held near them.
As for `NC(=O)c1ccc(Oc2ccc(NC(=O)N[C@@H]3[C@@H]4COc5c(F)ccc(F)c5[C@@H]43)nc2)cc1` [Example 9, 4-({6-[({[(1S,1aR,7bR)-4,7-difluoro-1,1a,2,7b-tetrahydrocyclopropa[c]chromen-1-yl]amino}carbonyl)amino]-3-pyridinyl}oxy)benzamide], the IC50 (usually the point on the concentration scale where inhibition reaches its midpoint) stood at 28 nM.

On to `CNC(=O)c1ccc(Oc2ccc(NC(=O)N[C@@H]3[C@@H]4COc5c(F)ccc(F)c5[C@@H]43)nc2)cc1` [Example 2, N-[(1S,1 aR,7bR)-4,7-difluoro-1,1a,2,7b-tetrahydrocyclopropa[c]chromen-1-yl]-N′-[5-(4-(N-methylcarboxyamido)phenoxy)-2-pyridinyl]urea], for which the IC50 stood at 26 nM. This IC50 and that of the compound before are within 1.5-fold of each other.

Compound `NS(=O)(=O)c1ccc(Oc2ccc(NC(=O)N[C@@H]3[C@@H]4COc5c(F)ccc(F)c5[C@@H]43)nc2)cc1` [Example 1, N-[(1S,1aR,7bR)-4,7-difluoro-1,1a,2,7b-tetrahydrocyclopropa[c]chromen-1-yl]-N′-[5-(4-(sulfonamido)phenoxy)-2-pyridinyl]urea] returned an IC50 of 29 nM. The compound `CC(=O)Nc1ccc(Oc2ccc(NC(=O)N[C@@H]3[C@H]4COc5c(F)ccc(F)c5[C@H]43)nc2)cc1` [Example 13, N-[4-({6-[({[(1S,1aS,7bS)-4,7-difluoro-1,1a,2,7b-tetrahydrocyclopropa[c]chromen-1-yl]amino}carbonyl)amino]-3-pyridinyl}oxy)phenyl]acetamide] had an IC50 of 40 nM. `NNC(=O)c1ccc(Oc2ccc(NC(=O)N[C@@H]3[C@H]4COc5c(F)ccc(F)c5[C@H]43)nc2)cc1` [Example 11, N-[(1S,1aS,7bS)-4,7-difluoro-1,1a,2,7b-tetrahydrocyclopropa[c]chromen-1-yl]-N′-{5-[4-(hydrazinocarbonyl)phenoxy]-2-pyridinyl}urea] registered an IC50 of 10 nM. Compound `CNC(=O)c1ccc(Oc2ccc(NC(=O)N[C@@H]3[C@@H]4COc5c(F)ccc(F)c5[C@@H]43)nc2)cn1` [Example 8, 5-({6-[({[(1S,1aR,7bR)-4,7-difluoro-1,1a,2,7b-tetrahydrocyclopropa[c]chromen-1-yl]amino}carbonyl)amino]-3-pyridinyl}oxy)-N-methyl-2-pyridinecarboxamide] displayed an IC50 of 70 nM.

Take `CS(=O)(=O)c1ccc(Oc2ccc(NC(=O)N[C@@H]3[C@@H]4COc5c(F)ccc(F)c5[C@@H]43)nc2)cc1` [Example 5, N-[(1S,1aR,7bR)-4,7-difluoro-1,1a,2,7b-tetrahydrocyclopropa[c]chromen-1-yl]-N′-[5-(4-(methylsulfon)phenoxy)-2-pyridinyl]urea]: the IC50 stood at 40 nM. As for `NC(=O)c1ccc(Oc2ccc(NC(=O)N[C@@H]3[C@@H]4COc5c(F)ccc(F)c5[C@@H]43)nc2)cn1` [Example 10, 5-({6-[({[(1S,1aR,7bR)-4,7-difluoro-1,1a,2,7b-tetrahydrocyclopropa[c]chromen-1-yl]amino}carbonyl)amino]-3-pyridinyl}oxy)-2-pyridinecarboxamide], the IC50 was found to be 80 nM.

Take `O=C(Nc1ccc(Oc2ccc(-n3cncn3)cc2)cn1)N[C@@H]1[C@@H]2COc3c(F)ccc(F)c3[C@@H]21` [Example 14, N-[(1S,1aR,7bR)-4,7-difluoro-1,1a,2,7b-tetrahydrocyclopropa[c]chromen-1-yl]-N′-{5-[4-(1H-1,2,4-triazol-1-yl)phenoxy]pyridin-2-yl}urea]: the concentration for half-maximal inhibition (IC50) is 60 nM. Still for that read-out and setting: next, `O=C(Nc1ccc(Oc2ccc(C(=O)NC3CC3)cc2)cn1)N[C@@H]1[C@H]2COc3c(F)ccc(F)c3[C@H]21` [Example 12, 4-({6-[({[(1S,1aS,7bS)-4,7-difluoro-1,1a,2,7b-tetrahydrocyclopropa[c]chromen-1-yl]amino}carbonyl)amino]-3-pyridinyl}oxy)-N-cyclopropylbenzamide]: 27 nM; `CS(=O)(=O)Nc1ccc(Oc2ccc(NC(=O)N[C@@H]3[C@@H]4COc5c(F)ccc(F)c5[C@@H]43)nc2)cc1` [Example 3, N-[(1S,1aR,7bR)-4,7-difluoro-1,1a,2,7b-tetrahydrocyclopropa[c]chromen-1-yl]-N′-[5-(4-(N-methylsulfonamido)phenoxy)-2-pyridinyl]urea]: 60 nM; `O=C(Nc1ccc(Oc2ccccc2)cn1)N[C@@H]1[C@@H]2COc3c(F)ccc(F)c3[C@@H]21` (relative stereo) [Prior art, cis-1-(4,7-difluoro-1,1a,2,7b-tetrahydro-cyclopropa[c]chromen-1-yl)-3-(5-phenoxy-pyridin-2-yl)-urea, reference compound]: 600 nM.

`Nc1ccc(Oc2ccc(NC(=O)N[C@@H]3[C@@H]4COc5c(F)ccc(F)c5[C@@H]43)nc2)cc1` [Example 4, N-[(1S,1aR,7bR)-4,7-difluoro-1,1a,2,7b-tetrahydrocyclopropa[c]chromen-1-yl]-N′-[5-(4-aminophenoxy)-2-pyridinyl]urea] yielded an IC50 of 70 nM.

The subject of another assay is wild type HIV (HIVIIIB).
Assay: not given
The following applies: read-out: ED50 (the source's name); cited from earlier work.
`O=C(Nc1ccc(Oc2ccccc2)cn1)N[C@@H]1[C@@H]2COc3c(F)ccc(F)c3[C@@H]21` (relative stereo) [Prior art, cis-1-(4,7-difluoro-1,1a,2,7b-tetrahydro-cyclopropa[c]chromen-1-yl)-3-(5-phenoxy-pyridin-2-yl)-urea, reference compound]: the EC50 was 7 nM.

The record behind these values is patent US7915295B2, “Non-nucleotide reverse transcriptase inhibitors” (priority 2004, dated 2011).
